Experiment [1] concerns LTB4 in human whole blood. Nature of the experiment: Ex vivo assay testing inhibitory activity in human whole blood after stimulation with calcium ionophore (LTB4 by immunoassay). It counts as cell-based. As to conditions: 20 μM ionomycin, read-out: IC50(μM) (hWB). The method, then: (2) Ex vivo Assay Testing Inhibitory Activity in Human Whole Blood After Stimulation with Calcium Ionophor: Human blood was collected in heparin-containing Vacutainer tubes. For each sample, 200 μl of blood were dispensed into a pre-warmed plate and 188 μl of RPMI-1640 medium (Invitrogen) containing 20 μg/ml Indomethacin (Sigma, St. Louis, Mo.) were added. Then 4 μl of a series of compound dilutions (in DMSO) were added, followed by a 15 min incubation at 37° C. with gentle shaking. After that, blood samples were stimulated by adding lonomycin (Calbiochem) to a final concentration of 20 μM. After another incubation at 37° C. for 30 min, samples were centrifuged for 5 min at 1800 g and 4° C. Supernatants were taken and LTB4 concentrations were determined using a commercially available enzyme-linked immunoassay (R&D Systems, Minneapolis, Minn.) according to the manufacturer's instructions. Results obtained for different concentrations of hydrolase inhibitor were then used to fit a dose-response curve and calculate an IC50 value.

A further experiment addresses T1, human LTA4 hydrolase (Homo sapiens, UniProt P09960).
T1 construct: A human LTA4 hydrolase full-length cDNA clone (NM_000895) was purchased from OriGene Technologies; made in house; host or cells: Escherichia coli BL21-AI
T1 sequence (P09960 1-611): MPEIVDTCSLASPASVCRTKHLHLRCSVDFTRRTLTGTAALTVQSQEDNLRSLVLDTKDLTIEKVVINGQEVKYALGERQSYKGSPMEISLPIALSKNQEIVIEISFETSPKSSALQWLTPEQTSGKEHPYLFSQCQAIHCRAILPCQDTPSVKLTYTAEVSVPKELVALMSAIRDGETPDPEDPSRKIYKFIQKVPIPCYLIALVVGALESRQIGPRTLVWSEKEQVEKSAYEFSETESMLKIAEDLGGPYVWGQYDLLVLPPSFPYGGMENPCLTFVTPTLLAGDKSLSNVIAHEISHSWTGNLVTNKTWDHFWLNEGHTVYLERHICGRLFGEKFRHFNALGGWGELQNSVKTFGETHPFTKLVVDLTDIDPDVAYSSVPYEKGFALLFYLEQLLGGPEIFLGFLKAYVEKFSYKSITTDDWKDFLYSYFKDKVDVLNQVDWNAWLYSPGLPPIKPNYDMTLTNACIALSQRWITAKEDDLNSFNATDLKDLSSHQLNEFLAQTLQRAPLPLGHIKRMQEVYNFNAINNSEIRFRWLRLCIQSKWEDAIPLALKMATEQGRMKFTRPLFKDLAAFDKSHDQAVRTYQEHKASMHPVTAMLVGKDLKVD
Nature of the experiment: In vitro assay testing inhibitory activity against purified recombinant human LTA4 hydrolase. It counts as biochemical. As to conditions: 200 nM recombinant enzyme, 2 μM LTA4, LTB4 by LC-MS/MS; read-out: IC50(μM) (hLTA4H). An excerpt: (1) In vitro Assay Testing Inhibitory Activity Against Purified Recombinant Human LTA4 Hydroase:
A human LTA4 hydrolase full-length cDNA clone (NM_000895) was purchased from OriGene Technologies (Rockville, Md.). The gene was amplified by polmerase chain reaction and transferred via pDONR201 into the bacterial expression vector pDEST17 by recombination (both plasmids from Invitrogen, Carlsbad, Calif.). The resulting construct was transformed into Escherichia coli BL21-AI (Invitrogen), and expression was induced by chemical induction with arabinose. The recombinant enzyme was purified by chromatography on a FPLC system (Amersham Biosciences, Uppsala, Sweden) using immobilized metal affinity chromatography (Ni-NTA Superflow, Qiagen, Hilden, Germany) and anion exchange chromatography (MonoQ HR 10/10, Amersham Biosciences).
The compounds of the invention were incubated in a series of dilutions with 200 nM of recombinant enzyme in assay buffer (100 mM Tris-HCl, 100 mM NaCl, 5 mg/ml fatty-acid free BSA, 10% DMSO, pH 8.0) for 10 min at room temperature to allow binding between LTA4 hydrolase and the inhibitors. LTA4 was prepared by alkaline hydrolysis of LTA4 methyl ester (Biomol, Plymouth Meeting, Pa., or Cayman Chemicals, Ann Arbor, Mich.). A solution of 10 μg of the ester was dried under a nitrogen stream and redissolved in 60 μl of a solution of 80% aceton and 20% 0.25 M NaOH. After incubation for 40 min at room temperature the resulting approximately 500 μM tock of LTA4 was kept at −80° C. for no more than a few days prior to use.
Immediately before the assay, LTA4 was diluted to a concentration of 10 μM in assay buffer (without DMSO) and added to the reaction mixture to a final concentration of 2 μM to initiate the enzyme reaction. After incubation for 120 sec at room temperature, the reaction was stopped by adding 2 volumes of chilled quenching buffer, containing acetonitrile with 1% acetic acid and 225 nM LTB4-d4 (Biomol). The samples were then kept at 4° C. over night to complete protein precipitation and centrifuged for 15 min at 1800 g. LTB4 formed was measured by LC-MS/MS using LTB4-d4 as an internal standard and an external LTB4 standard (Biomol) as reference. Briefly, the analyte was separated from LTB4 isomers formed by spontaneous hydrolysis of LTA4 using isocratic elution (modified protocol from Mueller et al. (1996), J. Biol. Chem. 271, 24345-24348) on a HPLC system (Waters, Milford, Mass.) and analyzed on a tandem quadrupole mass spectrometer (Waters). MRM transitions followed on 2 channels were 335.2>195.3 (LTB4) and 339.2>197.3 (LTB4-d4). Based on the amounts of LTB4 found at each inhibitor concentration, a dose-response curve was fitted to the data and an IC50 value was calculated.

In experiment [2] the test system is ionophore-induced LTB4 production. To be noted: oral administration; cited from earlier work.
A further experiment has as its system colitis symptoms. As to conditions: eight weeks of treatment; cited from earlier work.
The subject of experiment [3] is ionophore-induced LTB4 production. To be noted: oral administration; cited from earlier work. The source holds these as a separate data set.

Results on 15 molecules are retold here after patent US7576102B2, “Biaryl substituted nitrogen containing heterocycle inhibitors of LTA4H for treating inflammation” (deCODE genetics ehf, priority 2005, dated 2009).

Each structure is given as a SMILES string. Structures can show the parent of a compound that is named as a salt.

With `c1ccc(Cc2ccc(O[C@H]3CCNC3)cc2)cc1` [Example 1, (S) 3-(4-Benzyl-phenoxy)-pyrrolidine hydrochloride salt], the IC50 (in experiment [1]; at human LTA4 hydrolase) was under 5 µM in each case.

With `c1ccc(Cc2ccc(O[C@@H]3CCNC3)cc2)cc1` [Example 2, (R) 3-(4-Benzyl-phenoxy)-pyrrolidine hydrochloride salt], the concentration for half-maximal inhibition (IC50) (in experiment [1]; at human LTA4 hydrolase) was under 5 µM each time.

On to `c1ccc(Oc2ccc(OC3CCNCC3)cc2)cc1` [Example 3, 4-(4-Phenoxy-phenoxy)-piperidine hydrochloride salt], for which the IC50 (in experiment [1]; on human LTA4 hydrolase) was under 5 µM each time.

On to `O=C(O)CCCN1CC[C@@H](Oc2ccc(Cc3ccccc3)cc2)C1` [Example 4, 4-[(R)-3-(4-Benzyl-phenoxy)-pyrrolidin-1-yl]-butyric acid hydrochloride salt], for which the IC50 (as a rule, the concentration that inhibits the measured activity by half) at human LTA4 hydrolase is under 5 µM.

As to `O=C(O)CCN1CCC(Oc2ccc(Oc3ccccc3)cc2)CC1` [Example 5, 3-[4-(4-Phenoxy-phenoxy)-piperidin-1-yl]-propionic acid], the IC50 on human LTA4 hydrolase is under 5 µM.

Regarding `O=C(O)CCCN1CCC(Oc2ccc(Oc3ccccc3)cc2)CC1` [Example 6, 4-[4-(4-Phenoxy-phenoxy)-piperidin-1-yl]-butyric acid hydrochloride salt], the concentration for half-maximal inhibition (IC50) at human LTA4 hydrolase was under 5 µM.

As to `FC(F)(F)c1ccc(Oc2ccc(OC3CCNCC3)cc2)cc1` [Example 7, 4-[4-(4-Trifluoromethyl-phenoxy)-phenoxy]-piperidine hydrochloride salt], the IC50 on human LTA4 hydrolase is under 5 µM.

`c1ccc(-c2ccc(Oc3ccc(OC4CCNCC4)cc3)cc2)cc1` [Example 8, 4-[4-(Biphenyl-4-yloxy)-phenoxy]-piperidine hydrochloride salt]: the concentration for half-maximal inhibition (IC50) (in experiment [1]; on human LTA4 hydrolase) was under 5 µM throughout.

For the molecule `FC(F)(F)Oc1ccc(Oc2ccc(OC3CCNCC3)cc2)cc1` [Example 9, 4-[4-(4-Trifluoromethoxy-phenoxy)-phenoxy]-piperidine hydrochloride], on human LTA4 hydrolase, the IC50 was 5 to 20 µM.

Turning to `Clc1ccc(Oc2ccc(OC3CCNCC3)cc2)cc1` [Example 10, 4-[4-(4-Chloro-phenoxy)-phenoxy]-piperidine hydrochloride], the 50% inhibitory concentration (IC50) at human LTA4 hydrolase is under 5 µM.

Consider `c1ccc(Oc2ccc(O[C@@H]3CCNC3)cc2)cc1` [Example 11, (R)-3-(4-Phenoxy-phenoxy)-pyrrolidine hydrochloride], for which, at human LTA4 hydrolase, the half-maximal inhibitory concentration (IC50) is under 5 µM.

In the case of `O=C(O)CCCN1CC[C@@H](Oc2ccc(Oc3ccccc3)cc2)C1` [Example 12, 4-[(R)-3-(4-Phenoxy-phenoxy)-pyrrolidin-1-yl]-butyric acid hydrogen chloride], the half-maximal inhibitory concentration (IC50) on human LTA4 hydrolase was under 5 µM.

`NC(=O)CCCN1CC[C@@H](Oc2ccc(Oc3ccccc3)cc2)C1` [Example 13, 4-[(R)-3-(4-Phenoxy-phenoxy)-pyrrolidin-1-yl]-butyramide]: the concentration for half-maximal inhibition (IC50) on human LTA4 hydrolase is under 5 µM.

With `O=C(O)CCCN1CC[C@@H](Oc2ccc(Oc3ccc(Cl)cc3)cc2)C1` [Example 14, 4-{(R)-3-[4-(4-Chloro-phenoxy)-phenoxy]-pyrrolidin-1-yl}-butyric acid HCl], at human LTA4 hydrolase, the 50% inhibitory concentration (IC50) was under 5 µM.

`CN(CCCOc1ccc(Cc2ccccc2)cc1)CCC(=O)O.Cl` [SC57461]: the “inhibition of ionophore-induced LTB4 production in mouse blood ex vivo” value in experiment [2] is reported as “inhibition of ionophore-induced LTB4 production”. Further, in the experiment with colitis symptoms, the “colitis symptoms in a primate model” value is on record as “significantly improved colitis symptoms”. In addition, the “inhibition of ionophore-induced LTB4 production in rat peritoneum in vivo” value in experiment [3] is reported as “inhibition of ionophore-induced LTB4 production”.
